In brackets after ≈: the same amount, converted by molar mass.

For data set [1], the system named is C6. Kind of data set: Toxicity in rat C6 cells assessed as effect on cellular viability up to 300 uM incubated for 72 hrs by WST1 assay. The data set is classed as cell-based. Conditions: c6, 72 h. (In general: Tetrazolium assays rely on reduction of a dye to a coloured formazan, in cell work by metabolically active cells.)
In data set [2] the test system is C6. The data set is described as follows: Toxicity in rat C6 cells assessed as effect on cell proliferation at 300 uM incubated up to 3 days by LDH release assay. In kind it is cell-based. Particulars: c6, 72 h, time <=3 day. (In general: LDH leaks from cells whose membrane has failed.)
Data set [3] relates to C6. The data set is described as follows: Toxicity in rat C6 cells assessed as effect on cell morphology at 1000 uM incubated for 3 days. The data set is classed as cell-based. Particulars: c6, 72 h, time 3 day.
The subject of data set [4] is C6. The data set is described as follows: Toxicity in rat C6 cells assessed as effect on cell viability up to 300 uM incubated for 72 hrs by LDH release assay. Particulars: c6, 72 h. The data set is classed as cell-based.
Data set [5] relates to C6. The data set is described as follows: Toxicity in rat C6 cells assessed as effect on extracellular lactate dehydrogenase activity at 1000 uM incubated for 3 days by LDH release assay. In kind it is cell-based. Particulars: c6, 72 h, time 3 day.
Data set [6] concerns C6. The data set is described as follows: Toxicity in rat C6 cells assessed as effect on cellular lactate production to 300 uM incubated for 72 hrs. In kind it is cell-based. Particulars: c6, 72 h.
For data set [7], the system named is C6. Kind of data set: Toxicity in rat C6 cells assessed as effect on cellular protein per well up to 300 uM incubated for 72 hrs. The data set is classed as cell-based. Particulars: c6, 72 h.
The subject of data set [8] is C6. Kind of data set: Toxicity in rat C6 cells assessed as reduction in cell proliferation at 1000 uM incubated up to 3 days by LDH release assay. In kind it is cell-based. Particulars: c6, 72 h, time <=3 day.
Data set [9] concerns the target T1, Prostaglandin G/H synthase 2 (Homo sapiens, UniProt P35354).
T1 sequence (P35354 whole entry): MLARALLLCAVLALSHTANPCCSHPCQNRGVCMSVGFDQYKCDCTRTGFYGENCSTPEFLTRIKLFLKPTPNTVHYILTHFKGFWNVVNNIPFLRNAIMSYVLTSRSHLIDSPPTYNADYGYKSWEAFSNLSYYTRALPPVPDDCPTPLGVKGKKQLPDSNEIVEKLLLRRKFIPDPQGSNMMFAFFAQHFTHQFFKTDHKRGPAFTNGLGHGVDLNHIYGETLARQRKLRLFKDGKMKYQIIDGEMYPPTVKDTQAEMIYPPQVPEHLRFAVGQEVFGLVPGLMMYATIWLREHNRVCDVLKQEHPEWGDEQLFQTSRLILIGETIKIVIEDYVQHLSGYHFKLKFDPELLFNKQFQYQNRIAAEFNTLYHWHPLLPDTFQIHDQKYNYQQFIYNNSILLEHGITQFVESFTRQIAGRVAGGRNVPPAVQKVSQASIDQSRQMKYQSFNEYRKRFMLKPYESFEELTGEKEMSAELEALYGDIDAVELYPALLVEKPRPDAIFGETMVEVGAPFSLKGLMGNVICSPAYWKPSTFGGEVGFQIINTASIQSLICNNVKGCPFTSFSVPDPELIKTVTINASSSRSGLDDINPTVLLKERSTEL
The data set is described as follows: Inhibition of human recombinant COX2 expressed in Sf9 cells using arachidonic acid and ADHP incubated for 5 mins by fluorimetry.

A short description of data set [10]: Solubility in water by HPLC/UV analysis. In kind it is physicochemical.
The subject of data set [11] is C6. Kind of data set: Toxicity in rat C6 cells assessed as reduction in protein content at 1000 uM incubated up to 3 days. The data set is classed as cell-based. Conditions: c6, 72 h, time <= day.
The target of data set [12] is Prostaglandin G/H synthase 1 (Homo sapiens, UniProt P23219). Kind of data set: Inhibition of human recombinant COX1 expressed in Sf9 cells using arachidonic acid and ADHP incubated for 3 mins by fluorimetry.
Sequence of Prostaglandin G/H synthase 1 (P23219 whole entry): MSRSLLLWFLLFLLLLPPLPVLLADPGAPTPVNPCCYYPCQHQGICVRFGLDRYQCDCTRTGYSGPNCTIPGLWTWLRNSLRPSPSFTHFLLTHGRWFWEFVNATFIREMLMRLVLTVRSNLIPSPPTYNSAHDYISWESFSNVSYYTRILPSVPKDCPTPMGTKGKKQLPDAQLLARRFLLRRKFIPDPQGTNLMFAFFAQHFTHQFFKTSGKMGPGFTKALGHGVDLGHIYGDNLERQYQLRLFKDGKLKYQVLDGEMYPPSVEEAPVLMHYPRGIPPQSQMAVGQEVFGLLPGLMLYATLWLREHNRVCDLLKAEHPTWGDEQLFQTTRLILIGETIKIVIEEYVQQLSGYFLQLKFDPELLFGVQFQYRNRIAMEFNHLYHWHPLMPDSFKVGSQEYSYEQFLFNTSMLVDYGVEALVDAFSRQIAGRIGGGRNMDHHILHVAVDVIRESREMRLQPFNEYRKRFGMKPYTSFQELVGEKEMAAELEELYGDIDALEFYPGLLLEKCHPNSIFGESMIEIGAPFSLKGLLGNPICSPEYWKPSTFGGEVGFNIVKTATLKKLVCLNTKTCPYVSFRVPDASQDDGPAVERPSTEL
In data set [13] the test system is C6. Kind of data set: Toxicity in rat C6 cells assessed as effect on cellular viability at 1000 uM incubated up to 3 days by WST1 assay. Conditions: c6, 72 h, time <=3 day. In kind it is cell-based.

For `CC(C)Cc1ccc(C(C)C(=O)O)cc1` (stereo unspecified) [IBUPROFEN], the Activity result with C6 [1], in the data set with C6 [2], in the data set with C6 [3], in the data set with C6 [4], in the data set with C6 [5] and in the data set on C6 [6] was “Non-Toxic” in each case. In addition, the Activity entry with C6 [7] was “Non-Toxic”; with C6 [8], “Toxic”.
As for `CC(C(=O)O)c1ccc(C[SiH](C)C)cc1` (stereo unspecified), the Activity result is given as “Non-Toxic” in the data set with C6 [1]; “Non-Toxic” with C6 [2]; “Non-Toxic” in the data set with C6 [3]; “Non-Toxic” with C6 [4]; “Toxic” in the data set with C6 [11]; “Non-Toxic” in the data set on C6 [5]. Moreover, the Activity entry in the data set with C6 [6] was “Non-Toxic”; with C6 [13] it was “Toxic”; with C6 [7], “Non-Toxic”; with C6 [8], “Toxic”. For the same compound, the half-inhibitory concentration (IC50) was determined as 8.3 µM in data set [9] and 26 µM in data set [12]. Also, the solubility in data set [10] came to 83 µg/mL (≈ 373 µM).

As a reminder, the IC50 is the concentration needed to halve the response being measured. What is called solubility is how much of the substance goes into solution per volume. Low values mean little dissolved substance, high ones much dissolved substance.

The values are drawn from ChEMBL document CHEMBL4665811, “Sila-Ibuprofen” (J Med Chem, 2020).
